Data from patent US10231954B2, “Neurodegenerative therapies” (LYTIX BIOPHARMA AS, priority 2014, dated 2019).

Legend:
Type in all cases: biochemical
MNK2 = MNK2 (Homo sapiens, UniProt Q9HBH9); assay: Kinase profiling MNK2; settings: 100 micromolar inhibitor concentration, 100 is no change
Description: (§1) Any value less that 25 is considered to be highly significant inhibition.

CDK9-Cyclin T1 = CDK9-Cyclin T1 (Homo sapiens, UniProt P50750); assay: Kinase profiling CDK9-Cyclin T1; settings: 100 micromolar inhibitor concentration, 100 is no change
Description: as §1

AMPK = assay: Kinase profiling AMPK; settings: 100 micromolar inhibitor concentration; 100 is no change
Description: as §1

SIK2 = SIK2 (Homo sapiens, UniProt Q9H0K1); assay: Kinase profiling SIK2; settings: 100 micromolar inhibitor concentration, 100 is no change
Description: as §1

IKKe = target: T1, IKKe (Homo sapiens, UniProt Q14164); assay: Kinase profiling IKKe; settings: 100 micromolar inhibitor concentration, 100 is no change
T1 sequence (Q14164 1-716): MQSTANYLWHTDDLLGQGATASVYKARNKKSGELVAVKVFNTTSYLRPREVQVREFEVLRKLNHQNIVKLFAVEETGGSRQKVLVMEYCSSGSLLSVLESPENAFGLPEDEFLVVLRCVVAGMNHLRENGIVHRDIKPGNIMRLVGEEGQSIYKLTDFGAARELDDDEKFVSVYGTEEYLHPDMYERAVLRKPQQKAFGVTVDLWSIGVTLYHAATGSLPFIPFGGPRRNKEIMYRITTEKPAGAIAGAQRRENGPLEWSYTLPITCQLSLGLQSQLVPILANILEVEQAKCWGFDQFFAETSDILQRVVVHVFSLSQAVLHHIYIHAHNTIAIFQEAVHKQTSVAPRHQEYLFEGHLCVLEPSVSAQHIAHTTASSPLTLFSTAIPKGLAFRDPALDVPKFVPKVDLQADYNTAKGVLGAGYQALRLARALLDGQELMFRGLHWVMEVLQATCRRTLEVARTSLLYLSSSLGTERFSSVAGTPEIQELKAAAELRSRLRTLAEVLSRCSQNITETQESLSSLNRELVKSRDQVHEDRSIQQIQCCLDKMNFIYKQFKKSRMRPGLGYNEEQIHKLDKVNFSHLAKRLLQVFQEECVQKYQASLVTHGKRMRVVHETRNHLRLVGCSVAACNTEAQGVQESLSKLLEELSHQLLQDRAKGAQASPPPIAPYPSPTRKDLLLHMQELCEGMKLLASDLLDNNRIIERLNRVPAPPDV
Description: as §1

HIPK1 = HIPK1 (Homo sapiens, UniProt Q86Z02); assay: Kinase profiling HIPK1; settings: 100 micromolar inhibitor concentration, 100 is no change
Description: as §1

PAK2 = PAK2 (Homo sapiens, UniProt Q13177); assay: Kinase profiling PAK2; settings: 100 micromolar inhibitor concentration, 100 is no change
Description: as §1

PAK6 = PAK6 (Homo sapiens, UniProt Q9NQU5); assay: Kinase profiling PAK6; settings: 100 micromolar inhibitor concentration, 100 is no change
Chain of PAK6 (Q9NQU5 whole entry, species assumed): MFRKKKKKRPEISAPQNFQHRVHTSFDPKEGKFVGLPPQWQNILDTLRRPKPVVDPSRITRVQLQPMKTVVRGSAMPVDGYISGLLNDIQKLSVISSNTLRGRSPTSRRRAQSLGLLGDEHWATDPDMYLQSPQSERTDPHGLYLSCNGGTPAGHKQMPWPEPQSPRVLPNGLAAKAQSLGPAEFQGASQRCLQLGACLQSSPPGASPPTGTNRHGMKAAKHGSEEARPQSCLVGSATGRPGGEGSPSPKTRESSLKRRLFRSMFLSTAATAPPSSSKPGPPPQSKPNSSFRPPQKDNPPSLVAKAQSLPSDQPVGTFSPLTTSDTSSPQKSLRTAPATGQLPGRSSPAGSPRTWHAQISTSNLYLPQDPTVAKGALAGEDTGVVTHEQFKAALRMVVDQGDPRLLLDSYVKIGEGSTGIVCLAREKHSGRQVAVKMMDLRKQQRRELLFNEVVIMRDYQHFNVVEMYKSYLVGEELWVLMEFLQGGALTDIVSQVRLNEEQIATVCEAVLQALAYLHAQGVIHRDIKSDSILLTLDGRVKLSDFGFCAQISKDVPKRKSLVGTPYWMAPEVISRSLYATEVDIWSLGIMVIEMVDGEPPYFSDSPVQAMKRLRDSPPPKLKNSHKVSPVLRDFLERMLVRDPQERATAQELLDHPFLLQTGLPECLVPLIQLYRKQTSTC
Description: as §1

MAP4K3 = target: T2, MAP4K3 (Homo sapiens, UniProt Q8IVH8); assay: Kinase profiling MAP4K3; settings: 100 micromolar inhibitor concentration, 100 is no change
T2 sequence (Q8IVH8 1-894): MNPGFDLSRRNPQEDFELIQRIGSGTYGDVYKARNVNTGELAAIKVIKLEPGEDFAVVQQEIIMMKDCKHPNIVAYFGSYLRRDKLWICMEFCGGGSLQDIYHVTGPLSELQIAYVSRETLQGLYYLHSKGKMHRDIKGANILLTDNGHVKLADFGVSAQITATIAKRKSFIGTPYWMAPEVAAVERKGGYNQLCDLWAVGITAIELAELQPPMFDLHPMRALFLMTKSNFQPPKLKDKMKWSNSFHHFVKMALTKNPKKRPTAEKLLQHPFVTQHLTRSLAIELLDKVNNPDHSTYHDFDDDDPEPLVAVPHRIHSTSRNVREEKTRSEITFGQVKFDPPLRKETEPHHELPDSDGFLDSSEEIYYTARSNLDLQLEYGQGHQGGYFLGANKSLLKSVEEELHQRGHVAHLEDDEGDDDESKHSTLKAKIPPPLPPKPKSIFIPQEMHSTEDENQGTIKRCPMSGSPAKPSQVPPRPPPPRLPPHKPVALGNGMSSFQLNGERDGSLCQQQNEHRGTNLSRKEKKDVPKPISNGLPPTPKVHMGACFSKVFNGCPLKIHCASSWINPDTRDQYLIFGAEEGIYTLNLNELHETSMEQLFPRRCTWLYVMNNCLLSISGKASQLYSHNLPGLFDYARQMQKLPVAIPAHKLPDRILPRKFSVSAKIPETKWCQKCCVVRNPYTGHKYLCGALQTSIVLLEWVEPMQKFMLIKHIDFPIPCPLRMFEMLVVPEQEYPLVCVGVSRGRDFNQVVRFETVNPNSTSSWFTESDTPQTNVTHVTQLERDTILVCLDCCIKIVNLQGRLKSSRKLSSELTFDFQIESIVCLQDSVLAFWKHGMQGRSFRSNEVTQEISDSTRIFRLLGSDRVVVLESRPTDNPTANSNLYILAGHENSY
Description: as §1

MINK1 = MINK1 (Homo sapiens, UniProt Q8N4C8); assay: Kinase profiling MINK1; settings: 100 micromolar inhibitor concentration, 100 is no change
Chain of MINK1 (Q8N4C8 whole entry, species assumed): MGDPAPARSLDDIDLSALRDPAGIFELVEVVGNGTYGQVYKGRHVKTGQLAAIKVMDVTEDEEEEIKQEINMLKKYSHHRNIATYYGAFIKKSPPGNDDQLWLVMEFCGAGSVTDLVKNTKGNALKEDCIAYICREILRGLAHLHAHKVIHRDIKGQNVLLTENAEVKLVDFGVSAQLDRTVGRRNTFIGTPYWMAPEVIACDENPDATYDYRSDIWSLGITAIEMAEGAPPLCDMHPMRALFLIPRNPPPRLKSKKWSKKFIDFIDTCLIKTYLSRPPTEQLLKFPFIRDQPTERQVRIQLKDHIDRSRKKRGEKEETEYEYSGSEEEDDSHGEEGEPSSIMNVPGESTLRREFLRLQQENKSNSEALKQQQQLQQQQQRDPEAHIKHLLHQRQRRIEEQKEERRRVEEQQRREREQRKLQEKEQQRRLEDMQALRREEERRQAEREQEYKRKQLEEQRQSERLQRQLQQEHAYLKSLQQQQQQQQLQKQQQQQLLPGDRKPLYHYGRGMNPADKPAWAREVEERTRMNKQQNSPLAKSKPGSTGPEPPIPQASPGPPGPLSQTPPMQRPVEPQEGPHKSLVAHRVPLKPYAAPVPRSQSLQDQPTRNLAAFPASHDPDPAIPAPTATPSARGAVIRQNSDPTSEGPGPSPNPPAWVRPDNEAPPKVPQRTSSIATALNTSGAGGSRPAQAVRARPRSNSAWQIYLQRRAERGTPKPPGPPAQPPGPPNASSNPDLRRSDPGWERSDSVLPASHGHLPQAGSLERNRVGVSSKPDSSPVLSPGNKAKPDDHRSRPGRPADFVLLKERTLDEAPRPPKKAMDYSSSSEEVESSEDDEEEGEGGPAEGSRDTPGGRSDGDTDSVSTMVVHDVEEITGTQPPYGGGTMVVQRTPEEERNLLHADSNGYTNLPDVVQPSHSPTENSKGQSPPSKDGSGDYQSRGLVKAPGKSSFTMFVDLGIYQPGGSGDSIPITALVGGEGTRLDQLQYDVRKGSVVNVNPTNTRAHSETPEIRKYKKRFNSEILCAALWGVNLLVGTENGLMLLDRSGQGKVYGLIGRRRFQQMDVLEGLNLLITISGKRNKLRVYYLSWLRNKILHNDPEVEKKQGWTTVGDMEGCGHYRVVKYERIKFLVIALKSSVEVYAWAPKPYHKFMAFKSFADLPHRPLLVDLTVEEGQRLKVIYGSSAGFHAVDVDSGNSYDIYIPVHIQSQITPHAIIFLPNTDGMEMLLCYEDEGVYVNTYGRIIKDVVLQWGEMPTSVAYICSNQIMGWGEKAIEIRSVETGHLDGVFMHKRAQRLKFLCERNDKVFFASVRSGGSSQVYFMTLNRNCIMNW
Description: as §1

TESK1 = TESK1 (Homo sapiens, UniProt Q15569); assay: Kinase profiling TESK1; settings: 100 micromolar inhibitor concentration, 100 is no change
Description: as §1

OSR1 = OSR1 (Homo sapiens, UniProt O95747); assay: Kinase profiling OSR1; settings: 100 micromolar inhibitor concentration, 100 is no change
Chain of OSR1 (O95747 whole entry): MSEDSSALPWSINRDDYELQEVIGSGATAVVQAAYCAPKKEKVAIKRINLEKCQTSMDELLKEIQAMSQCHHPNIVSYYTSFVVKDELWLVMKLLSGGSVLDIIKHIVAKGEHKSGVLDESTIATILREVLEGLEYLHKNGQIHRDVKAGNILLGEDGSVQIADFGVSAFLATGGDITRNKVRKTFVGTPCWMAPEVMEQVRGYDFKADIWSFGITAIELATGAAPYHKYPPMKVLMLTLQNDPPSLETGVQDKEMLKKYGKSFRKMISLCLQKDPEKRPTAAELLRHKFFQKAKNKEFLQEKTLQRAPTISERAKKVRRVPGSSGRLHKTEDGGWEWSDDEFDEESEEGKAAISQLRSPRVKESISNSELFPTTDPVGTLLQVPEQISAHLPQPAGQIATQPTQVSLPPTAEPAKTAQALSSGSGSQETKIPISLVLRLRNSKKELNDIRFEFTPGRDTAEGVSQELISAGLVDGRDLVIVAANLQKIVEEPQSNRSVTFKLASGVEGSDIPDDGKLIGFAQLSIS
Description: as §1

MPSK1 = MPSK1 (Homo sapiens, UniProt O75716); assay: Kinase profiling MPSK1; settings: 100 micromolar inhibitor concentration, 100 is no change
Description: as §1

BRK = BRK (Homo sapiens, UniProt Q13882); assay: Kinase profiling BRK; settings: 100 micromolar inhibitor concentration, 100 is no change
Description: as §1

FGF-R1 = FGF-R1 (Homo sapiens, UniProt P11362); assay: Kinase profiling FGF-R1; settings: 100 micromolar inhibitor concentration, 100 is no change
Chain of FGF-R1 (P11362 22-822, species assumed): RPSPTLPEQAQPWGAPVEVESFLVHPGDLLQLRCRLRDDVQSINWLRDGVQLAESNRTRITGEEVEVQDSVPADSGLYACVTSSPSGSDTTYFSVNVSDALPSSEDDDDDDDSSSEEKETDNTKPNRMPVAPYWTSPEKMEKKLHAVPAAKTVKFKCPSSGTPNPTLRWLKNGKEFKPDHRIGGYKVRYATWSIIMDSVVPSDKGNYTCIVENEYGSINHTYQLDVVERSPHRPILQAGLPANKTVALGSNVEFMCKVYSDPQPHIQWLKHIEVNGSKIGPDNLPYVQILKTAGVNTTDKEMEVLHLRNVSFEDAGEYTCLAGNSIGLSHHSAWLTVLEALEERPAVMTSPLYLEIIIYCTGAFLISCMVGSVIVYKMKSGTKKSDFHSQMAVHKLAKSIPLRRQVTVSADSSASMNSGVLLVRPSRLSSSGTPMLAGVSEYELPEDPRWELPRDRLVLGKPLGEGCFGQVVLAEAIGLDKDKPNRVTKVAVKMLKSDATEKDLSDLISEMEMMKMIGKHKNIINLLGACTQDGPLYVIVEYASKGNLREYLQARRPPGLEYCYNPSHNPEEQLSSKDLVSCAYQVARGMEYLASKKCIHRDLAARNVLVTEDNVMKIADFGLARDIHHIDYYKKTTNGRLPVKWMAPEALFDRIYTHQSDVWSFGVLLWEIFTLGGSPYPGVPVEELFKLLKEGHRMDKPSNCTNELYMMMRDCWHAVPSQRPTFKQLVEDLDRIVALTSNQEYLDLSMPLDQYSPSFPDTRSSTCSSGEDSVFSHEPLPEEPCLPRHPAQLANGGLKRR
Description: as §1

IRR = IRR (Homo sapiens, UniProt P14616); assay: Kinase profiling IRR; settings: 100 micromolar inhibitor concentration, 100 is no change
Chain of IRR (P14616 27-1297, species assumed): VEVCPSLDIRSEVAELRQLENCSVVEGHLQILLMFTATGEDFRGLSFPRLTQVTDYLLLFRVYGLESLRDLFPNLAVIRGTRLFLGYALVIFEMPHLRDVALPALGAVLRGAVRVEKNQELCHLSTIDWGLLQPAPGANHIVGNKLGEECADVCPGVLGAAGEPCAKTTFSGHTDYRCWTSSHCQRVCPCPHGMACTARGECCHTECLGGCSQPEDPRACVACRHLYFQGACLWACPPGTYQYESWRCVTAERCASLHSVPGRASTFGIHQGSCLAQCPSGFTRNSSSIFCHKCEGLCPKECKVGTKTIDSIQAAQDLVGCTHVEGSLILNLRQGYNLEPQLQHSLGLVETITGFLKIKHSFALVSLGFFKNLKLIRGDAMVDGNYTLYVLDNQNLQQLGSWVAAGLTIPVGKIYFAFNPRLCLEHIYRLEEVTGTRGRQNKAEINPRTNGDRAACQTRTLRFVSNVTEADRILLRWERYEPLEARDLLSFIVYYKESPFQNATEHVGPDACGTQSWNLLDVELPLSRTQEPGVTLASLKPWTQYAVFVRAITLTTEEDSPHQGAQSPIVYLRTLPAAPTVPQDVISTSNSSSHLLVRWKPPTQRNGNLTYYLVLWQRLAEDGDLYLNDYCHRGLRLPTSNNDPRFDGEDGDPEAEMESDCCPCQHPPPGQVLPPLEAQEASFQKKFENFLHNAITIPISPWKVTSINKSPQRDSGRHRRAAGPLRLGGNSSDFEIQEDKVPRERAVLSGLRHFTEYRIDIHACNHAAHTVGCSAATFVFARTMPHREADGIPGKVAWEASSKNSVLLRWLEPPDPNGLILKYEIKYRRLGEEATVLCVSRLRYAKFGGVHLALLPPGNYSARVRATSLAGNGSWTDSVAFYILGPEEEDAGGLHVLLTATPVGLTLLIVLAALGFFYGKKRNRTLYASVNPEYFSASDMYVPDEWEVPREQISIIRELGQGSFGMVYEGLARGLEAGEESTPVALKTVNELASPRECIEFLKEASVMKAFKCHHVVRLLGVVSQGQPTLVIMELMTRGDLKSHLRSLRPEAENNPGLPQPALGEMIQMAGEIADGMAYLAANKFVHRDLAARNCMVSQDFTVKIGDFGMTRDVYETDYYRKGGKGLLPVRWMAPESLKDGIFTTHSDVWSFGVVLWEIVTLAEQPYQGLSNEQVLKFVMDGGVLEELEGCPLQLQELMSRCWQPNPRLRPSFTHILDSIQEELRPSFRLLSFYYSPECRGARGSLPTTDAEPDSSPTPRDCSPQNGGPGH
Description: as §1

Chain of MNK2 (Q9HBH9 whole entry, species assumed): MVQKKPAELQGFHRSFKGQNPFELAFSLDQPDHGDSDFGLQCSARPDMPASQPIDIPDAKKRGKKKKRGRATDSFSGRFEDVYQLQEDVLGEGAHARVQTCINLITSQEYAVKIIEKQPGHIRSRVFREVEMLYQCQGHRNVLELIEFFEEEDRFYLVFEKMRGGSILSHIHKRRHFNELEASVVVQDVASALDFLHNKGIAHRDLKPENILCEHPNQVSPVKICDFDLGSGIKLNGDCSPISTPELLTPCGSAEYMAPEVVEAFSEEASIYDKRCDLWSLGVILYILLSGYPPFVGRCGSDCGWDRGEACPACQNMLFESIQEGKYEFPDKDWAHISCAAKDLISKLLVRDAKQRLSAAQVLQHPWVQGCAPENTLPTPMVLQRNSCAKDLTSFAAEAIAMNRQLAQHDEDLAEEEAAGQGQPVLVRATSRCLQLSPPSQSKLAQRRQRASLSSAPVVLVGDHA

Compound | residual kinase activity, MNK2 (MNK2) | residual kinase activity, CDK9-Cyclin T1 (CDK9-Cyclin T1) | residual kinase activity, AMPK (AMPK) | residual kinase activity, SIK2 (SIK2) | residual kinase activity, IKKe (IKKe) | residual kinase activity, HIPK1 (HIPK1) | residual kinase activity, PAK2 (PAK2) | residual kinase activity, PAK6 (PAK6) | residual kinase activity, MAP4K3 (MAP4K3) | residual kinase activity, MINK1 (MINK1) | residual kinase activity, TESK1 (TESK1) | residual kinase activity, OSR1 (OSR1) | residual kinase activity, MPSK1 (MPSK1) | residual kinase activity, BRK (BRK) | residual kinase activity, FGF-R1 (FGF-R1) | residual kinase activity, IRR (IRR) | also measured
CC(=O)Nc1nc2ccccc2s1 [Compound 03-32] | 91 | 45 | 107 | 81 | 109 | 62 | 90 | 92 | 90 | 92 | 95 | 112 | 86 | 89 | 12 | 63 | –
CC(=O)Nc1nc2cc(F)ccc2s1 [Compound 03-77] | – | – | 73 | – | – | – | – | – | – | – | – | – | – | – | – | – | remaining activity at 100 µM (MNK2; read-out: residual kinase activity, MNK2): 86%; remaining activity at 100 µM (CDK9-Cyclin T1; read-out: residual kinase activity, CDK9-Cyclin T1): 46%; remaining activity at 100 µM (SIK2; read-out: residual kinase activity, SIK2): 64%; remaining activity at 100 µM (IKKe; read-out: residual kinase activity, IKKe): 91%; remaining activity at 100 µM (HIPK1; read-out: residual kinase activity, HIPK1): 40%; remaining activity at 100 µM (PAK2; read-out: residual kinase activity, PAK2): 11%; remaining activity at 100 µM (PAK6; read-out: residual kinase activity, PAK6): 106%; remaining activity at 100 µM (MAP4K3; read-out: residual kinase activity, MAP4K3): 55%; remaining activity at 100 µM (MINK1; read-out: residual kinase activity, MINK1): 65%; remaining activity at 100 µM (TESK1; read-out: residual kinase activity, TESK1): 106%; remaining activity at 100 µM (OSR1; read-out: residual kinase activity, OSR1): 109%; remaining activity at 100 µM (MPSK1; read-out: residual kinase activity, MPSK1): 86%; remaining activity at 100 µM (BRK; read-out: residual kinase activity, BRK): 91%; remaining activity at 100 µM (FGF-R1; read-out: residual kinase activity, FGF-R1): 103%; remaining activity at 100 µM (IRR; read-out: residual kinase activity, IRR): 57%
O=C(Nc1nc2cc(O)ccc2s1)c1cccnc1 [Compound 03-33] | 36 | 97 | 91 | 69 | 81 | 41 | 114 | 119 | 69 | 51 | 102 | 109 | 101 | 46 | 102 | 51 | –
